{
  "source": "patent US5032384A",
  "about": "“Compositions and method for the treatment of disease” (Block Drug Company, Inc., priority 1989, dated 1991)",
  "biological_target": "cyclooxygenase cascade",
  "experiment": "Inhibition of PGE2 synthesis (assay of cyclooxygenase products, 14C arachidonate incorporation) in homogenate of inflamed human gingival tissue",
  "type": "biochemical",
  "experimental": "A large pool of inflamed human gingival tissue was obtained from patients with periodontitis who were undergoing routine periodontal surgery. The tissues were immediately stored in liquid nitrogen prior to use or were used fresh. The assay of cyclooxygenase products was performed as a modification of the assay of El Attar et al., J. Periodon. […] Pooled tissue was weighed and homogenized at 0°-4° C. with a Polytron® (Brinkman) homogenizer in a 0.2 M TRIS buffer, pH 8.0, at a final concentration of 20 mg/ml. After centrifugation for 10 minutes at 1200×g, the supernatant was divided into 3 ml aliquots for incubation in the presence or absence of a test compound.\nProstanoids were extracted as described by Powell, Methods in Eng., 86, 467 (1982) using a Sep-Pak-C18 cartridge from Waters Associates. The Sep-Pak was prepared by the sequential elution of 20 milliliters of ethanol and 20 milliliters of water. The sample was then adjusted to 15% ethanol, pH 3.0, with acetic acid and applied to the column. […]\nThese are readily separated and quantified using a 4.6×100 nm RP-18 Spheri-5u column from Brownle Labs. A Flow-One radioactivity monitor simultaneously measured radioactivity while monitoring elution at 192 nanometers.\nThe net incorporation of the 14C arachidonate was measured in the absence of the test substance in order to determine the maximum activity of the cyclooxygenase cascade.",
  "data": [
    {"compound": "CC(C(=O)O)c1cccc(C(=O)c2ccccc2)c1", "note": "(centres unmarked) [ketoprofen]", "values": [
      {"measurement": "IC50 value of ketoprofen (inhibition of PGE2 synthesis)", "setting": "change in presence of alpha-tocopherol", "value": "lowered"}
    ]},
    {"compound": "Cc1c(C)c2c(c(C)c1O)CCC(C)(CCCC(C)CCCC(C)CCCC(C)C)O2", "note": "(stereo not drawn) [alpha-tocopherol]", "values": [
      {"measurement": "IC50 value of alpha-tocopherol (inhibition of PGE2 synthesis)", "setting": "change in presence of ketoprofen", "value": "lowered"}
    ]}
  ]
}
